Where two headings read alike, the source gives them in different places.
Legend:
sarcoma 180 [1] = assay: Antitumor activity against sarcoma 180 in mice (s.c. tumor, i.p. treatment); format: in vivo, mouse
Protocol: (§1) ^a Tumor (2 × 10^6 cells) was inoculated s.c. Treatment
(§2) started day 4, QD × 5, i.p.; control had nine mice, and each dose
(§3) two mice; tumor size was evaluated on Day 7 after the beginning of
(§4) started day 4, I.P., QD × 5; control had 3 mice, and each dose had
(§5) mice; Tumor size was evaluated on day 7 after the beginning of treatment.

sarcoma 180 [2] = assay: Antitumor activity against sarcoma 180 in B6D2F1 mice, b.i.d.x5; format: in vivo, mouse
Source text: ^a Tumor (3 × 10^6 cells) was inoculated S.C. on day -3.
Antitumor treatment started on day 1, b.i.d.X5, IP.

[3] = system: Human promyelocytic leukemic cell (HL-60); assay: Cytotoxicity, HL-60; format: cell-based; details: for IC50 / IC90: Homo sapiens; for IC90: read-out: Cytotoxic Concentration IC90
Source text: (§6) | cell growth by 50% (IC50) in μM.

B-16 melanoma = assay: Antitumor activity against B-16 melanoma in mice (s.c. tumor, i.p. treatment); format: in vivo, mouse
Protocol: as §1, §2, §3, §4, §5

[4] = system: Chinese hamster lung cells resistant to actinomycin D (DC-3F/ADII); assay: Cytotoxicity, DC-3F/ADII; format: cell-based; details: for IC50 / IC90: Cricetulus griseus, DC3F; for IC90: read-out: Cytotoxic Concentration IC90
Source text: as §6

[5] = system: Human acute lymphoblastic T cells (CCRF-CEM); assay: Cytotoxicity, CCRF-CEM; format: cell-based; details: for IC50 / IC90: Homo sapiens, CCRF-CEM; for IC90: read-out: Cytotoxic Concentration IC90
Source text: as §6

[6] = system: Lewis lung adenocarcinoma; assay: Anticancer activity in BDF mice bearing Lewis lung adenocarcinoma; format: in vivo, mouse
Protocol: ^a Tumor (4 × 10^6 cells) was inoculated S.C. Treatment
started on day 4, I.P., QDX5. Control had 4 mice and each dose had 3 mice
Tumor sizes were evaluated on day 7, day 10 and day 14 after beginning of […]

MT-2 leukemic cells = assay: Growth inhibition, XTT assay, MT-2; format: cell-based; details: Table 8, MT-2, XTT
Protocol: (§7) Cells were platted on day 1, drug was added on day 2, and XTT assays (for HL-60, MT-2, MT-4 leukemic cells) or SRB assays (for 833K and SK-Br-3 solid tumor cells) were carried out on day 5.

CCRF-CEM/VBL cells = assay: Cytotoxicity, CCRF-CEM resistant to vinblastine; format: cell-based, human; details: for IC50 / IC90: Homo sapiens, CCRF-CEM; for IC90: read-out: Cytotoxic Concentration IC90
Source text: as §6

DC-3F cells = assay: Single drug effect, SRB assay, DC-3F; format: cell-based, Chinese hamster; details: Cricetulus griseus, DC3F, Table 10, DC-3F, 72 h, read-out: Dm
CCRF-CEM/VM-1 cells = assay: Cytotoxicity, CCRF-CEM/VM-1; format: cell-based, human; details: for IC50 / IC90: Homo sapiens, CCRF-CEM; for IC90: read-out: Cytotoxic Concentration IC90
Source text: as §6

833K solid tumor cells = assay: Growth inhibition, SRB assay, 833K; format: cell-based; details: Homo sapiens, Table 8, 833K
Protocol: as §7

[7] = system: SK-Br-3 solid tumor cells; assay: Growth inhibition, SRB assay, SK-Br-3; format: cell-based; details: Homo sapiens, Table 8, SKBr-3, SRB
Protocol: as §7

HL-60 cells = assay: Growth inhibition, XTT assay, HL-60; format: cell-based; details: Homo sapiens
Protocol: as §7

[8] = Table 6, 0.2 mg/kg i.p. QD×5, day 7
[9] = Table 6, 0.5 mg/kg i.p. QD×5, day 7
[10] = Table 6, 2.0 mg/kg i.p. QD×5, day 7
[11] = Table 12, 0.15 mg/kg IP b.i.d.X5, Day 7
[12] = Table 12, 0.15 mg/kg IP b.i.d.X5, Day 14
[13] = Table 12, 0.2 mg/kg IP b.i.d.X5, Day 7
[14] = Table 12, 0.2 mg/kg IP b.i.d.X5, Day 14
[15] = Table 12, 0.3 mg/kg IP b.i.d.X5, Day 7
[16] = Table 12, 0.3 mg/kg IP b.i.d.X5, Day 14
[17] = Table 4, DC-3F/ADII, EQI-6 = (1)
[18] = Table 14, vinblastine-resistant (VLB100)
[19] = Table 3, CCRF-CEM/VBL, EQI-6 = (1)
[20] = Table 3, CCRF-CEM/VM-1, EQI-6 = (1)

CO[C@@]12[C@H](COC(N)=O)C3=C(C(=O)C(C)=C(N)C3=O)N1C[C@@H]1N[C@@H]12 [mitomycin C]
tumor inhibition (sarcoma 180 [1]; 0.5 mg/kg i.p. QDx5, sarcoma): 37.5%
AVE TUMOR VOLUME (T/C) (sarcoma 180 [1]; [8]): 0.845
AWC (average weight change) (sarcoma 180 [1]; [8]): -0.5 g
AVE TUMOR VOLUME (T/C) (sarcoma 180 [1]; [9]): 0.625
AWC (average weight change) (sarcoma 180 [1]; [9]): -2.3 g
AVE TUMOR VOLUME (T/C) (sarcoma 180 [1]; [10]): 0.188
AWC (average weight change) (sarcoma 180 [1]; [10]): -1.4 g
AWC (average weight change) (sarcoma 180 [2]; [11]): -0.6 g
Avg Tumor Volume (T/C) (sarcoma 180 [2]; [11]): 0.650
AWC (average weight change) (sarcoma 180 [2]; [12]): +0.2 g
Avg Tumor Volume (T/C) (sarcoma 180 [2]; [12]): 0.814
AWC (average weight change) (sarcoma 180 [2]; [13]): +0.8 g
Avg Tumor Volume (T/C) (sarcoma 180 [2]; [13]): 0.538
AWC (average weight change) (sarcoma 180 [2]; [14]): -0.6 g
Avg Tumor Volume (T/C) (sarcoma 180 [2]; [14]): 0.485
AWC (average weight change) (sarcoma 180 [2]; [15]): -1.8 g
Avg Tumor Volume (T/C) (sarcoma 180 [2]; [15]): 0.249
AWC (average weight change) (sarcoma 180 [2]; [16]): -1.0 g
Avg Tumor Volume (T/C) (sarcoma 180 [2]; [16]): 0.394
IC50 ([3]; HL-60, Table 1, HL-60, read-out: IC50): 0.0484 µM
IC50 ([3]; HL-60, Table 2, HL60, read-out: concentration required to inhibit cell growth by 50% (IC50)): 0.048 µM
IC50 ([3]; HL-60, Table 3, HL-60, read-out: Cytotoxic Concentration IC50): 0.0484 µM
IC90 ([3]; HL-60, Table 3, HL-60): 0.197 µM
IC50 ([3]; HL-60, Table 15, HL-60, read-out: Cytotoxic Concentration IC50): 0.051 µM
IC90 ([3]; HL-60, Table 15, HL-60): 0.167 µM
Cytotoxic Concentration IC95 ([3]; Table 3, HL-60): 0.319 µM
ratio of IC50 to EQI-6 (in parentheses) ([3]; Table 3, HL-60, EQI-6 = (1)): 83.4 ×
ratio of IC90 to EQI-6 (in parentheses) ([3]; Table 3, HL-60, EQI-6 = (1)): 75.8 ×
ratio of IC95 to EQI-6 (in parentheses) ([3]; Table 3, HL-60, EQI-6 = (1)): 72.5 ×
Cytotoxic Concentration IC95 ([3]; Table 15, HL-60): 0.25 µM
tumor inhibition (B-16 melanoma; 0.5 mg/kg i.p. QDx5, B-16 melanoma): 24.6%
AVE TUMOR VOLUME (T/C) (B-16 melanoma; [8]): 0.952
AWC (average weight change) (B-16 melanoma; [8]): -1.9 g
AVE TUMOR VOLUME (T/C) (B-16 melanoma; [9]): 0.756
AWC (average weight change) (B-16 melanoma; [9]): -0.9 g
AVE TUMOR VOLUME (T/C) (B-16 melanoma; [10]): 0.143
AWC (average weight change) (B-16 melanoma; [10]): +0.4 g
IC50 ([4]; Table 2, DC-3F/ADII (MDR/Actinomycin D), read-out: concentration required to inhibit cell growth by 50% (IC50)): 0.113 µM
IC50 ([4]; Table 4, DC-3F/ADII, read-out: Cytotoxic Concentration IC50): 0.113 µM
IC90 ([4]; Table 4, DC-3F/ADII): 0.38 µM
IC50 ([4]; Table 13, DC-3F/ADII, read-out: Cytotoxic Concentration IC50): 0.074 µM
IC90 ([4]; Table 13, DC-3F/ADII): 0.264 µM
Cytotoxic Concentration IC95 ([4]; Table 4, DC-3F/ADII): 0.575 µM
ratio of IC50 to EQI-6 (in parentheses) [4, 17]: 92.2 ×
ratio of IC90 to EQI-6 (in parentheses) [4, 17]: 24.7 ×
ratio of IC95 to EQI-6 (in parentheses) [4, 17]: 26.9 ×
Cytotoxic Concentration IC95 ([4]; Table 13, DC-3F/ADII): 0.406 µM
IC50 ([5]; Table 1, CCRF-CEM, read-out: IC50): 0.14 µM
IC50 ([5]; Table 2, CCRF/CEM, read-out: concentration required to inhibit cell growth by 50% (IC50)): 0.14 µM
IC50 ([5]; Table 3, CCRF-CEM, read-out: Cytotoxic Concentration IC50): 0.14 µM
IC90 ([5]; Table 3, CCRF-CEM): 0.364 µM
IC50 ([5]; Table 14, CCRF-CEM, read-out: Cytotoxic Concentration IC50): 0.096 µM
IC90 ([5]; Table 14, CCRF-CEM): 0.37 µM
Cytotoxic Concentration IC95 ([5]; Table 3, CCRF-CEM): 0.503 µM
ratio of IC50 to EQI-6 (in parentheses) ([5]; Table 3, CCRF-CEM, EQI-6 = (1)): 280 ×
ratio of IC90 to EQI-6 (in parentheses) ([5]; Table 3, CCRF-CEM, EQI-6 = (1)): 165 ×
ratio of IC95 to EQI-6 (in parentheses) ([5]; Table 3, CCRF-CEM, EQI-6 = (1)): 136 ×
Cytotoxic Concentration IC95 ([5]; Table 14, CCRF-CEM): 0.584 µM
tumor inhibition ([6]; 0.8 mg/kg i.p. QDx5, day 14, Lewis lung adenocarcinoma): 56.3%
Average Tumor Volume (T/C) ([6]; Table 7, 0.4 mg/kg i.p. QDX5, Day 7): 0.490
Average Tumor Volume (T/C) ([6]; Table 7, 0.4 mg/kg i.p. QDX5, Day 10): 0.411
Average Tumor Volume (T/C) ([6]; Table 7, 0.4 mg/kg i.p. QDX5, Day 14): 0.515
Average Tumor Volume (T/C) ([6]; Table 7, 0.8 mg/kg i.p. QDX5, Day 7): 0.356
Average Tumor Volume (T/C) ([6]; Table 7, 0.8 mg/kg i.p. QDX5, Day 10): 0.363
Average Tumor Volume (T/C) ([6]; Table 7, 0.8 mg/kg i.p. QDX5, Day 14): 0.437
mortality ([6]; Table 7, 2.0 mg/kg i.p. QDX5): All of three mice died on day 8 or day 9
Average Tumor Volume (T/C) ([6]; Table 7, 2.0 mg/kg i.p. QDX5, Day 7): 0.169
IC50 (MT-2 leukemic cells): 0.1 µM
IC50 (CCRF-CEM/VBL cells; Table 2, CCRF/VBL (MDR/pg-p), read-out: concentration required to inhibit cell growth by 50% (IC50)): 0.566 µM
IC50 (CCRF-CEM/VBL cells; Table 3, CCRF-CEM/VBL, read-out: Cytotoxic Concentration IC50): 0.566 µM
IC90 (CCRF-CEM/VBL cells; Table 3, CCRF-CEM/VBL): 2.33 µM
IC50 (CCRF-CEM/VBL cells; Table 14, vinblastine-resistant (VLB100), read-out: Cytotoxic Concentration IC50): 0.917 µM
IC90 (CCRF-CEM/VBL cells; [18]): 2.4 µM
Cytotoxic Concentration IC95 (CCRF-CEM/VBL cells; Table 3, CCRF-CEM/VBL): 3.77 µM
ratio of IC50 to EQI-6 (in parentheses) (CCRF-CEM/VBL cells; [19]): 299.5 ×
ratio of IC90 to EQI-6 (in parentheses) (CCRF-CEM/VBL cells; [19]): 375.8 ×
ratio of IC95 to EQI-6 (in parentheses) (CCRF-CEM/VBL cells; [19]): 405.4 ×
Cytotoxic Concentration IC95 (CCRF-CEM/VBL cells; [18]): 3.327 µM
IC50 (DC-3F cells): 0.059 µM
IC50 (CCRF-CEM/VM-1 cells; Table 2, CCRF/VM-1 (MDR/TopoII), read-out: concentration required to inhibit cell growth by 50% (IC50)): 0.216 µM
IC50 (CCRF-CEM/VM-1 cells; Table 3, CCRF-CEM/VM-1, read-out: Cytotoxic Concentration IC50): 0.216 µM
IC90 (CCRF-CEM/VM-1 cells; Table 3, CCRF-CEM/VM-1): 0.895 µM
IC50 (CCRF-CEM/VM-1 cells; Table 14, CCRF-CEM/VM-1, read-out: Cytotoxic Concentration IC50): 0.113 µM
IC90 (CCRF-CEM/VM-1 cells; Table 14, CCRF-CEM/VM-1): 0.675 µM
Cytotoxic Concentration IC95 (CCRF-CEM/VM-1 cells; Table 3, CCRF-CEM/VM-1): 1.373 µM
ratio of IC50 to EQI-6 (in parentheses) (CCRF-CEM/VM-1 cells; [20]): 113.7 ×
ratio of IC90 to EQI-6 (in parentheses) (CCRF-CEM/VM-1 cells; [20]): 45.5 ×
ratio of IC95 to EQI-6 (in parentheses) (CCRF-CEM/VM-1 cells; [20]): 90.9 ×
Cytotoxic Concentration IC95 (CCRF-CEM/VM-1 cells; Table 14, CCRF-CEM/VM-1): 1.239 µM
IC50 (833K solid tumor cells): 0.3 µM
IC50 [7]: 0.3 µM
IC50 (HL-60 cells; Table 8, HL-60, XTT, growth inhibition, read-out: IC50): 0.08 µM
IC50 (HL-60 cells; Table 9, HL 60, XTT, 72 h, read-out: Dm): 0.048 µM
